Test results taken from ChEMBL document CHEMBL2057086, “3-Bromo-3-deazaneplanocin and 3-bromo-3-deazaaristeromycin: synthesis and antiviral activity” (Bioorg Med Chem Lett, 2012).
Active and inactive are the calls of the source. The calls are words filed in the database; no cut-off is given here.

What was measured:
[1] = Selectivity index, ratio of CC50 for MDCK cells to EC50 for Influenza A virus H5N1; type: toxicity, cell-based; settings: dog, read-out: Ratio CC50/EC50
[2] = test system: Tacaribe virus; experiment: Antiviral activity against Tacaribe virus infected in african green monkey Vero 76 cells assessed as reduction of viral replication; type: functional, organism-based; settings: Mammarenavirus tacaribeense
[3] = test system: Respiratory syncytial virus; experiment: Antiviral activity against Respiratory syncytial virus infected in […] cells assessed as reduction of viral replication; type: functional, organism-based
[4] = Selectivity index, ratio of CC50 for african green monkey Vero cells to EC50 for Yellow fever virus; type: toxicity, cell-based; settings: read-out: Ratio CC50/EC50
[5] = test system: Venezuelan equine encephalitis virus; experiment: Antiviral activity against Venezuelan equine encephalitis virus infected in african green monkey Vero cells assessed as reduction of viral replication; type: functional, organism-based
[6] = Cytotoxicity against human HeLa assessed as minimum compound concentration required to cause microscopically detectable alteration of normal cell morphology; type: cell-based; settings: HeLa cells, read-out: Activity
[7] = test system: Vaccinia virus; experiment: Antiviral activity against Vaccinia virus infected in human HeLa cells assessed as reduction of viral replication; type: functional, organism-based; settings: Orthopoxvirus vaccinia
[8] = test system: West Nile virus; experiment: Antiviral activity against West Nile virus infected in african green monkey Vero cells assessed as reduction of viral replication; type: functional, organism-based
[9] = Selectivity index, ratio of minimum compound concentration required to cause microscopically detectable alteration of normal cell morphology for human HeLa cells to EC50 for Vaccinia virus; type: toxicity, cell-based; settings: read-out: Selectivity Index
[10] = test system: Dengue virus; experiment: Antiviral activity against Dengue virus infected in african green monkey Vero cells assessed as reduction of viral replication; type: functional, organism-based
[11] = test system: Yellow fever virus; experiment: Antiviral activity against Yellow fever virus infected in african green monkey Vero cells assessed as reduction of viral replication; type: functional, organism-based
[12] = Selectivity index, ratio of CC50 for MDCK cells to EC50 for Influenza B virus; type: toxicity, cell-based; settings: dog, read-out: Ratio CC50/EC50
[13] = Selectivity index, ratio of CC50 for african green monkey Vero 76 cells to EC50 for Rift Valley fever virus; type: toxicity, cell-based; settings: read-out: Selectivity Index
[14] = Selectivity index, ratio of CC50 for HEL to EC50 Cytomegalovirus
[15] = test system: SARS-CoV; experiment: Antiviral activity against SARS coronavirus infected in african green monkey Vero cells assessed as reduction of viral replication; type: functional, organism-based; settings: Severe acute respiratory syndrome-related coronavirus
[16] = test system: Hepatitis C virus; experiment: Antiviral activity against Hepatitis C virus infected in human AVA5 cells assessed as reduction of viral replication; type: functional, organism-based; settings: Hepacivirus hominis
[17] = Selectivity index, ratio of CC50 for african green monkey Vero cells to EC50 for Dengue virus; type: toxicity, cell-based; settings: read-out: Selectivity Index
[18] = test system: Rift Valley fever virus; experiment: Antiviral activity against Rift Valley fever virus infected in african green monkey Vero 76 cells assessed as reduction of viral replication; type: functional, organism-based
[19] = test system: Influenza A virus; experiment: Antiviral activity against Influenza A virus H5N1 infected in MDCK cells assessed as reduction of viral replication; type: functional, organism-based
[20] = Cytotoxicity against african green monkey Vero cells assessed as reduction of cell viability; type: cell-based; settings: chlorocebus sabaeus
[21] = test system: Influenza A virus; experiment: Antiviral activity against Influenza A virus H3N2 infected in MDCK cells assessed as reduction of viral replication; type: functional, organism-based
[22] = Cytotoxicity against african green monkey Vero 76 cells assessed as reduction of cell viability; type: cell-based; settings: chlorocebus sabaeus
[23] = test system: Influenza A virus; experiment: Antiviral activity against Influenza A virus H1N1 infected in MDCK cells assessed as reduction of viral replication; type: functional, organism-based
[24] = Selectivity index, ratio of CC50 for african green monkey Vero cells to EC50 for Measles virus; type: toxicity, cell-based; settings: read-out: Ratio CC50/EC50
[25] = Cytotoxicity against MDCK cells assessed as reduction of cell viability; type: cell-based, Canis lupus familiaris; settings: dog
[26] = test system: Measles morbillivirus; experiment: Antiviral activity against Measles virus infected in african green monkey Vero cells assessed as reduction of viral replication; type: functional, organism-based
[27] = Cytotoxicity against HEL assessed as reduction of cell viability; type: cell-based; settings: human, HEL cells
[28] = Selectivity index, ratio of CC50 for african green monkey Vero 76 cells to EC50 for Tacaribe virus; type: toxicity, cell-based; settings: read-out: Selectivity Index
[29] = test system: Influenza B virus; experiment: Antiviral activity against Influenza B virus infected in MDCK cells assessed as reduction of viral replication; type: functional, organism-based
[30] = test system: Cytomegalovirus; experiment: Antiviral activity against Cytomegalovirus infected in HEL assessed as reduction of viral replication; type: functional, organism-based; settings: Human betaherpesvirus 5
[31] = test system: Feline coronavirus; experiment: Antiviral activity against Feline coronavirus assessed as reduction of viral replication; type: functional, organism-based
[32] = test system: Vesicular stomatitis virus; experiment: Antiviral activity against Vesicular stomatitis virus infected in human HeLa cells assessed as reduction of viral replication; type: functional, organism-based
[33] = test system: Human respirovirus 3; experiment: Antiviral activity against Parainfluenza-3 virus infected in african green monkey Vero cells assessed as reduction of viral replication; type: functional, organism-based; settings: Human respirovirus 3, Vero
[34] = Selectivity index, ratio of CC50 for african green monkey Vero 76 cells to EC50 for Punta Toro virus; type: toxicity, cell-based; settings: read-out: Selectivity Index
[35] = test system: Junin virus; experiment: Antiviral activity against Junin virus infected in african green monkey Vero cells assessed as reduction of viral replication; type: functional, organism-based; settings: Mammarenavirus juninense
[36] = test system: Mammalian orthoreovirus 1; experiment: Antiviral activity against Reovirus 1 infected in african green monkey Vero cells assessed as reduction of viral replication; type: functional, organism-based
[37] = test system: Human alphaherpesvirus 1; experiment: Antiviral activity against HSV-1 infected in HEL assessed as reduction of viral replication; type: functional, organism-based
[38] = Selectivity index, ratio of CC50 for human Akata cells to EC50 for Epstein-Barr virus; type: toxicity, cell-based; settings: read-out: Selectivity Index
[39] = Selectivity index, ratio of CC50 for african green monkey Vero cells to EC50 for Junin virus; type: toxicity, cell-based; settings: read-out: Selectivity Index
[40] = test system: Hepatitis B virus; experiment: Antiviral activity against HBV infected in human HepG2(2.2.15) cells assessed as reduction of viral replication; type: functional, organism-based
[41] = Selectivity index, ratio of CC50 for african green monkey Vero cells to EC50 for Pichinde virus; type: toxicity, cell-based; settings: read-out: Selectivity Index
[42] = test system: Punta Toro virus; experiment: Antiviral activity against Punta Toro virus infected in african green monkey Vero 76 cells assessed as reduction of viral replication; type: functional, organism-based
[43] = test system: Human gammaherpesvirus 4; experiment: Antiviral activity against Epstein-Barr virus infected in human Akata cells assessed as reduction of viral replication; type: functional, organism-based; settings: human gammaherpesvirus 4, Akata
[44] = test system: Coxsackievirus B4; experiment: Antiviral activity against Coxsackievirus B4 virus infected in african green monkey Vero cells assessed as reduction of viral replication; type: functional, organism-based
[45] = test system: Felid alphaherpesvirus 1; experiment: Antiviral activity against Feline herpesvirus infected in cat CRFK cells assessed as reduction of viral replication; type: functional, organism-based; settings: Felid alphaherpesvirus 1, CRFK
[46] = Selectivity index, ratio of CC50 for cat CRFK cells to EC50 for Feline herpesvirus; type: toxicity, cell-based; settings: read-out: Selectivity Index
[47] = Selectivity index, ratio of CC50 for MDCK cells to EC50 for Influenza A virus H1N1; type: toxicity, cell-based; settings: dog, read-out: Ratio CC50/EC50
[48] = Cytotoxicity against cat CRFK cells assessed as reduction of cell viability; type: cell-based, Felis catus
[49] = Selectivity index, ratio of CC50 for MDCK cells to EC50 for Influenza A virus H3N2; type: toxicity, cell-based; settings: dog, read-out: Ratio CC50/EC50
[50] = Cytotoxicity against human Akata cells assessed as reduction of cell viability; type: cell-based
[51] = test system: Human alphaherpesvirus 2; experiment: Antiviral activity against HSV-2 infected in HEL assessed as reduction of viral replication; type: functional, organism-based
[52] = Cytotoxicity against african green monkey Vero cells assessed as minimum compound concentration required to cause microscopically detectable alteration of normal cell morphology; type: cell-based; settings: chlorocebus sabaeus, read-out: Activity
[53] = test system: Sindbis virus; experiment: Antiviral activity against Sindbis virus infected in african green monkey Vero cells assessed as reduction of viral replication; type: functional, organism-based
[54] = test system: Pichinde virus; experiment: Antiviral activity against Pichinde virus infected in african green monkey Vero cells assessed as reduction of viral replication; type: functional, organism-based
[55] = test system: Cowpox virus; experiment: Antiviral activity against Cowpox virus infected in HFF cells assessed as reduction of viral replication; type: functional, organism-based

Nc1ncc(Br)c2c1ncn2[C@@H]1C[C@H](CO)[C@@H](O)[C@H]1O
selectivity ratio [1]: > 260 | EC50 [2]: 9.9 µM | Activity [3]: inactive | selectivity ratio [4]: 9.7 | Activity [5]: inactive | MCC [6]: > 300 µM | EC50 [7]: 230 µM | Activity [8]: inactive | selectivity ratio [9]: > 1.3 | EC50 [10]: 93 µM | EC50 [11]: 19 µM | selectivity ratio [12]: > 340 | selectivity ratio [13]: > 5 | Ratio CC50/EC50 [14]: 23 | Activity [15]: inactive | Activity [16]: inactive | selectivity ratio [17]: 2 | EC50 [18]: 58.3 µM | EC50 [19]: 1140 nM | CC50 [20]: 70 µM | EC50 [21]: > 290000 nM | CC50 [22]: > 79 µM | EC50 [23]: > 290 µM | selectivity ratio [24]: 4.3 | CC50 [25]: > 290000 nM | EC50 [26]: 16 µM | CC50 [27]: 80 µM | selectivity ratio [28]: 7.9 | EC50 [29]: 840 nM | EC50 [30]: 3.5 µM

Nc1ncc(Br)c2c1ncn2[C@@H]1C=C(CO)[C@@H](O)[C@H]1O
Activity [31]: inactive | EC50 [32]: 400 nM | EC50 [33]: 500 nM | selectivity ratio [1]: > 310 | selectivity ratio [34]: 140 | EC50 [2]: < 0.094 µM | EC50 [35]: 94 nM | Activity [36]: inactive | Activity [37]: inactive | selectivity ratio [38]: < 4.3 | Activity [5]: inactive | selectivity ratio [39]: 160 | MCC [6]: ≥ 100 µM | EC50 [7]: 0.5 µM | Activity [40]: inactive | Activity [8]: inactive | selectivity ratio [41]: 24 | EC50 [10]: 2.9 µM | selectivity ratio [12]: < 7 | selectivity ratio [13]: 250 | EC50 [42]: 250 nM | EC50 [43]: > 30 nM | Activity [44]: inactive | EC50 [45]: 200 nM | selectivity ratio [46]: 470 | selectivity ratio [47]: > 2340 | selectivity ratio [17]: 57 | EC50 [18]: < 0.094 µM | CC50 [48]: 94 µM | EC50 [19]: 940 nM | CC50 [20]: 15.2 µM | EC50 [21]: 1550 nM | selectivity ratio [49]: > 190 | CC50 [50]: 130 nM | Activity [51]: inactive | CC50 [22]: 23.2 µM | EC50 [23]: < 0.094 µM | MCC [52]: > 100 µM | CC50 [25]: 1100 nM | Activity [53]: inactive | selectivity ratio [28]: > 2000 | EC50 [54]: 1200 nM | Activity [55]: inactive | EC50 [29]: > 160 nM
